Experimental findings from patent US9532983B2, “Benzofuran compounds, compositions, kits and/or methods thereof” (Savannah State University, priority 2013, dated 2017) are described below.

The target in one test is T1, 5-HT2B (Homo sapiens, UniProt P41595).
T1 construct: expressed in transfected cells
Briefly: Primary binding assay at non-sigma receptors: 5-HT2B. To be noted: read-out: % Inhibition 5-HT2B. The procedure: (§1) Initial primary binding screening assays were performed using a 50 μM (initial)−10 μM (final) assay concentration of reference and test compounds.

The test system of the next test is 3βHSD2. Briefly: Western blot, expression of 3βHSD2 in MA-10 cells. The note with it: any concentration. The format is cell-based, mouse. The procedure: Mouse Leydig cell line (MA-10) was grown in Waymouth media containing 15% horse serum, 5% fetal bovine serum, and 1× gentamycin, which was replaced with […] G418 (geneticin) for VDAC1 knockdown (ΔVDAC1) MA10 cells. Cells were maintained at 37° C. in a humidified incubator under 5% CO2. To isolate mitochondria, cells were removed from tissue culture plates by gentle scrapping in phosphate-buffered saline at room temperature, incubated in hypotonic buffer (10 mM HEPES, pH 7.4) for 30 to 40 min, and mitochondria were isolated following readily available procedures. The mitochondrial preparation was verified by Western blotting with the cytochrome P450 SCC enzyme (Corgen, Tapai, Taiwan) and calnexin antibodies (Santa Cruz Biotechnology, Inc., Santa Cruz, Calif.).
Protein (12.5 μg) was separated by 15% SDS-polyacrylamide gel electrophoresis and transferred to a polyvinylidinedifluoride membrane (Millipore Corporation, Billerica, Mass.). The membrane was blocked with 3% nonfat dry milk for 45 min, probed overnight with the primary antibodies, and then incubated with […] goat anti-rabbit or anti mouse IgG (Thermo Fisher Scientific, Waltham, Mass.). Signals were developed with chemiluminescent reagent (Thermo Fisher Scientific). For loading control of all Western blots, the membrane was stained with β-actin antibody, which was previously independently stained with StAR or 3-β-hydroxysteroid dehydrogenase (3βHSD2) or VDAC1 and VDAC2 antiserum. The band intensity was determined by using Image Quant 5.2 (Phosphorimager; GE Healthcare, Chalfont St. Giles, Buckinghamshire, UK). Densitometric calculation may reflect the ratio of σ1 or VDAC2 and β-actin following an established procedure that is readily available.
In addition, VDAC2 antibody (FIG. 3E) was used to probe and was compared with β-actin expression (FIG. 3F) of the same membrane.

The target of a further test is T2, Alpha2C (Homo sapiens, UniProt P18825).
T2 construct: expressed in transfected cells
T2 sequence (P18825 1-462): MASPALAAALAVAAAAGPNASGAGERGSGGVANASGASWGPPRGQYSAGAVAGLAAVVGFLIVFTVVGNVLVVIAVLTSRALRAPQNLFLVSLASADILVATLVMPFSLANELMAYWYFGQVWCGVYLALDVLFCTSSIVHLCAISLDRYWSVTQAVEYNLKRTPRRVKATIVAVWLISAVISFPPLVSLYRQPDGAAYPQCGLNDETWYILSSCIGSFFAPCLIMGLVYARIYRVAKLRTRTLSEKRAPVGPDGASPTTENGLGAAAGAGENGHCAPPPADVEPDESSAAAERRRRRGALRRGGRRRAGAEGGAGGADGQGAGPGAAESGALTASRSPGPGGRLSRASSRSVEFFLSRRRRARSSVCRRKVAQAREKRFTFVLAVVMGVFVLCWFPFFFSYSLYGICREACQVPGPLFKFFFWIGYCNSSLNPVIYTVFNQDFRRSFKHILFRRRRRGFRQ
The experiment in a line: Primary binding assay at non-sigma receptors: Alpha2C. To be noted: 10 μM (final) assay concentration. As for the experimental part:
as §1

In another test the target is T3, 5HT3 (Homo sapiens, UniProt P46098).
T3 construct: expressed in transfected cells
T3 sequence (P46098 24-478): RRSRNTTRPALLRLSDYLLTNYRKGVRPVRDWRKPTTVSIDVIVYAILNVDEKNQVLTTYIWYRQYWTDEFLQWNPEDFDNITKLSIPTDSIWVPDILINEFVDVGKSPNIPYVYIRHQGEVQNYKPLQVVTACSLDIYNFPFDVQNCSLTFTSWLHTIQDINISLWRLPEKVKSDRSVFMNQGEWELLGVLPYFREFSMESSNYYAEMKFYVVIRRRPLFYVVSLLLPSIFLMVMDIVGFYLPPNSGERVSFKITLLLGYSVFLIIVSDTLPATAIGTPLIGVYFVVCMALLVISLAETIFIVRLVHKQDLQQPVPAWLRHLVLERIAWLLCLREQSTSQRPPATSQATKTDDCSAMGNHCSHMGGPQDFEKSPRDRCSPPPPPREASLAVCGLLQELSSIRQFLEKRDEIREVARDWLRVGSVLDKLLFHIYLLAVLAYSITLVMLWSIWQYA
The experiment in a line: Primary binding assay at non-sigma receptors: 5HT3. To be noted: 10 μM (final) assay concentration. The procedure: as §1

In the next test the target is T4, σ2 receptor (Rattus norvegicus, UniProt Q5U3Y7).
T4 construct: PC12 cell homogenates for σ2 receptors were added to the wells; endogenous in cells; host or cells: PC12 cell homogenate
T4 sequence (Q5U3Y7 1-176): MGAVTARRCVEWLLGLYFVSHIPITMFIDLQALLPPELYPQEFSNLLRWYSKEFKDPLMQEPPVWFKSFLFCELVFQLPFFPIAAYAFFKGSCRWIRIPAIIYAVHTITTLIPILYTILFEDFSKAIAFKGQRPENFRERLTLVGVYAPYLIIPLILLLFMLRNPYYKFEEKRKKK
The experiment in a line: Secondary binding assay, Ki determination at σ2 receptor ([3H]DTG, PC12 cell homogenates). The note with it: read-out: σ-2 (Ki).

The target of a further test is T5, M4 (Homo sapiens, UniProt P08173).
T5 construct: expressed in transfected cells
T5 sequence (P08173 1-479): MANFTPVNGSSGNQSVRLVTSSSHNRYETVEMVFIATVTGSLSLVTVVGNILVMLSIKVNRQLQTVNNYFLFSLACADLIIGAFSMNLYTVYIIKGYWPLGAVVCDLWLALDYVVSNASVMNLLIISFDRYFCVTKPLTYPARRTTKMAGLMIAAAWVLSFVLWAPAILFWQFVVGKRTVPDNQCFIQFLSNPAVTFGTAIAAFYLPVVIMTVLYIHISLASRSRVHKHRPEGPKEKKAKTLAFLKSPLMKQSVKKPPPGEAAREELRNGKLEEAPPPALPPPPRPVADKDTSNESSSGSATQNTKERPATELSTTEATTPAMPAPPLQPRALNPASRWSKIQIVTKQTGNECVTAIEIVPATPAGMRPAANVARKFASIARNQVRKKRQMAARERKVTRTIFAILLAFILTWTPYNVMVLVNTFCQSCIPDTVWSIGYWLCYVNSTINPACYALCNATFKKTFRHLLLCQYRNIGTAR
Briefly: Primary binding assay at non-sigma receptors: M4. The note with it: 10 μM (final) assay concentration. The procedure:
as §1

pKi: −log10 of the molar value. Read-outs that look alike come from different tables or passages of the source.

By inhibition is commonly meant the percentage by which the read-out fell short of the control. As a reminder, the pKi is −log10 of the Ki, conventionally taken in molar units.

T1 sequence (P41595 whole entry, species assumed): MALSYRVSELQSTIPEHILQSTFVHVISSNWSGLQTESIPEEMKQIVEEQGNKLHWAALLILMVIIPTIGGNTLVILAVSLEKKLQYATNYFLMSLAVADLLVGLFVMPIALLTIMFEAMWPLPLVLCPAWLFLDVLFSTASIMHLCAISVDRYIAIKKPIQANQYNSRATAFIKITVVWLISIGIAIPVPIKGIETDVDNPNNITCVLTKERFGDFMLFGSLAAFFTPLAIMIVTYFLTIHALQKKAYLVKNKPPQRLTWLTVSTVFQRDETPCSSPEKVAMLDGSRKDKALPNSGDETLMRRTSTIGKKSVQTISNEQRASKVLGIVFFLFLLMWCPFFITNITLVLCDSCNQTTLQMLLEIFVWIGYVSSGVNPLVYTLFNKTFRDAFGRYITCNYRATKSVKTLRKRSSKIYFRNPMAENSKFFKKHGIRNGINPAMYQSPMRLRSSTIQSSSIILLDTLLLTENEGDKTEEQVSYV
Experimental for σ2 receptor: Secondary binding assays, Ki determinations were performed by measuring the inhibition of radioligand binding by various concentrations of test and reference compound. […] [^3H]Pentazocine (3 nM) was used as the radioligand for σ1 receptors and [^3H]Ditolyglguanidine (DTG) (1 nM) as the radioligand for σ2 receptors. Aliquots (50 μl) of radioligand were dispensed into the wells of a 96-well plate containing 100 μl of Standard Binding Buffer. Then, duplicate 50-μl aliquots of the test and reference compound dilutions were added. Finally, either crude membrane fractions prepared from rat brain homogenate for σ1 receptors or PC12 cell homogenates for σ2 receptors were added to the wells, and the plates shielded from light to prevent photolysis of light sensitive ligands.
For σ1 receptors, the reactions were incubated at 37° C. for 2.5 h, and for σ2 receptors, the reactions were incubated at room temperature for 2 h. Labeled receptors were harvested by rapid filtration on to Whatman GF/B glass filters pre-soaked with 0.3% polyethyleneimine using 96-well Brandel harvester. Four rapid 500 μl washes are performed with chilled Standard Binding buffer to reduce non-specific binding. Filters were placed in 6-ml scintillation tubes and allowed to dry overnight. EcoScint scintiallation cocktail (National Diagnostics) was added to each tube prior to counting. […] The filter mats were dried, the scintillate melted onto the filters and the radioactivity counted in a Microbeta scintillation counter.
Raw data (dpm) representing total radioligand binding (i.e., specific+nonspecific binding) were plotted as a function of the logarithm of the molar concentration of the competitor (i.e., test or reference compound).

For the molecule `COc1cc2oc(C(=O)N(CCCN3CCCCC3)c3ccccc3)c(C)c2cc1OC` [KSCM-1, 5,6-Dimethoxy-3-methyl-N-phenyl-N-(3-(piperidin-1-yl)propyl)benzofuran-2-carboxamide], the inhibition at 10 µM at 5-HT2B was determined as 43.8%; at Alpha2C, 78.9%; on 5HT3 it was 64.2%; on M4 it was 54.4%. Also, the “level of 3βHSD2 (in words)” value with 3βHSD2 is reported as “no change”. The pKi at σ2 receptor was 6.28.
On to `Cc1c(C(=O)N(CCCN2CCCCC2)c2ccccc2)oc2ccccc12` [KSCM-5, 3-Methyl-N-phenyl-N-(3-(piperidin-1-yl)propyl)benzofuran-2-carboxamide], for which the inhibition at 10 µM amounted to 69.2% at 5-HT2B (primary binding assay, 10 μM (final) assay concentration); 61.9% on Alpha2C; 2.9% at 5HT3; 43.1% at M4. Also, the “level of 3βHSD2 (in words)” value in the test with 3βHSD2 is recorded as “no change”. On σ2 receptor, the pKi was 7.80.
Consider `COc1ccc2c(C)c(C(=O)N(CCCN3CCCCC3)c3ccccc3)oc2c1` [KSCM-11, 6-Methoxy-3-methyl-N-phenyl-N-(3-(piperidin-1-yl)propyl)benzofuran-2-carboxamide], for which the inhibition at 10 µM amounted to 93.9% at 5-HT2B, 49% at Alpha2C, 7.3% at 5HT3 and 68.4% at M4. In addition, the “level of 3βHSD2 (in words)” value in the test with 3βHSD2 was “no change”. Further, at σ2 receptor, the pKi is 7.39.
